{
  "source": "patent US9447446B2",
  "about": "“Lipid multilayer microarrays and their use for cell culture screening” (FLORIDA STATES UNIVERSITY RESEARCH FOUNDATION, priority 2011, dated 2016)",
  "key": {"NIH 3T3 cells [1]": {"test_system": "NIH 3T3 cells", "test": "live cell imaging of DOPE-rhodamine uptake from lipid pattern", "type": "cell-based", "conditions": "cells cultured over lipid pattern for 25 hours; decrease starts after 20 hours, complete by 25 hours", "method": "DOTAP is mixed with 1 mol % DOPE-rhodamine, and 2 μL was deposited in the M-type inkwell for the DPN 2000.\nMicroscopy for all the imaging except the supplementary video is done with a Nikon Eclipse Ti microscope. The printed patterns and the Retiga-SRV fast 1394 camera are used. Patterns are imaged in brightfield before cell culture. Nikon fluorescence filter sets B-2E/C FITC and G-2E/C TRITC are used for the live/dead cell assay. Imaging is done at 800 m sec exposure time with the 10× (NA=0.3) objective and at 1 second for the 4× (NA=0.13) objective. Lamp intensity for all imaging is set at 4. Microscopy for the live cell lipid uptake for the supplementary video is done with a Nikon TE-2000-E inverted microscope equipped with a Nikon Plan Apo 40× (NA=0.95) DIC objective.\nFIGS. 10, 11, 12, 13, 14 and 15 show the uptake of DOPE-rhodamine-labeled DOTAP by NIH 3T3 cells. […] Fluorescence intensity is used as the indicator of the amount of lipid taken up by the cells. A higher fluorescence in cells indicates higher uptake of lipids. Grid lines 1022 and 1024 in FIG. 10 and grid lines 1026 and 1028 in FIGS. 10 and 11 divide the images of FIGS. 10 and 11 into areas 1032 and 1034, respectively, analyzed and compared for fluorescence intensity before and after cell incubation on the patterns. […]"}, "NIH 3T3 cells [2]": {"test_system": "NIH 3T3 cells", "type": "cell-based", "conditions": "for cell death over drug pattern: lipid (DOTAP)-encapsulated drug pattern, FIG. 21", "method": "NIH 3T3 cells (obtained from the American Type Culture Collection, CRL-1658™, and maintained according to the collections guidelines) for all experiments are seeded at 4×10^5 cells/mL and grown to 70% confluence in Dulbecco's Modified Eagle Medium supplemented with 10% Cosmic Calf Serum (Sigma Aldrich). Trypsin (0.25%) is used for cell detachment, and the medium is replaced with fresh medium 24 hours before the experiment. Cells are seeded onto the patterned glass coverslips by gently pipetting a drop of the cell suspension directly over each pattern to prevent the patterns from being washed away. The same method is used to seed other parts of the slide for use as control areas. The cells are incubated over the patterned areas for 48 hours.\nAliquots of valinomycin (20 mg/mL) and DOTAP (20 mg/mL), both dissolved in chloroform, are placed in an amber glass vial and serially diluted to produce valinomycin masses of 20, 10, 5, 2.5, 1.25 and 0.63 mg. Drying, liposome formation and cell culture are conducted as described above for the Rhodamine dose-response. Toxicity assays are performed after 24 and 48 hours.\nDocetaxel (20 mg/mL) dissolved in DMSO is further serially diluted in Hank's buffered salt solution to produce seven solutions with docetaxel masses of 50, 25, 12.5, 6.25, 3.2, 1.6 and 0.8 mg respectively, each with a total volume of […]. The eighth is a solution of DMSO only (control) at the same volume as the 50 mg solution. These mixtures are added to […] of medium and added to the cells in the same manner as described above for the Rhodamine dose-response. Toxicity assays are performed after incubation for 48 hours.\nThe BacLight live/dead assay is purchased from Invitrogen. The cells are incubated with both SYTO 9 and propidium iodide for 20 min. The cells stained with both are counted as dead, and those stained with SYTO 9 only are counted as live.^34,35 All counting of live and dead cells is done by hand.\nValinomycin is tested first because of its quick action as a cytotoxic agent and immediate action upon incorporation into the cellular membrane. The drug acts as a potassium ionophore, facilitating loss of potassium and resulting in cell death. FIGS. 16, 17, 18 and 19 show a toxicity assay of cells that are cultured over a lipid multilayer microarray. […] In FIGS. 16, 17 and 18, arrows in 1612, 1614 and 1616 point to the same alignment mark. FIG. 16 is a brightfield image of DOTAP/valinomycin pattern before cell culture. […] FIG. 18 is a higher magnification of the square area 1702 of FIG. 17. Images are taken after 24 hours. Images in FIGS. 17 and 18 are the merged TRITC and FITC fluorescence channel images. FIG. 19 is a mosaic of images (TRITC filter set). Central square 1902 corresponds to FIG. 17, and the other squares are the areas immediately surrounding central square 1902. All live cells are stained green; nuclei of dead cells are stained red.\nTaxotere® (docetaxel) is an anticancer drug and is a second-generation, semisynthetic analog of Taxol® (paclitaxel). Taxanes, which include paclitaxel and docetaxel, work by binding to microtubules and stabilizing them, thus preventing their disassembly and progression through mitosis, and therefore their functioning inside the cytoplasm. The cell may revert to the G1 phase or undergo apoptosis.^36 Cells are plated over patterns (such as that in FIG. 16) consisting of lipid only, lipid-encapsulated docetaxel and lipid-encapsulated valinomycin, all on the same glass coverslip and incubated for 48 hours. The results are shown in FIGS. 20, 21, 22, 23, 24, 25, 26, 27, 28 and 29."}, "[3]": {"conditions": "NIH 3T3 cells, 48 hours, live/dead assay"}},
  "data": [
    {"compound": "1,2-dioleoyl-sn-glycerol-3-phosphoethanolamine-N-(lissamine rhodamine b sulfonyl) (ammonium salt) [DOPE-rhodamine]", "values": [
      {"measurement": "critical uptake time (window in which fluorescence of absorbed spots disappears)", "setting": "NIH 3T3 cells [1]", "result": 5, "unit": "h"}
    ]},
    {"compound": "CCCCCCCC/C=C\\CCCCCCCC(=O)OCC(C[N+](C)(C)C)OC(=O)CCCCCCC/C=C\\CCCCCCCC.[Cl-]", "note": "(stereo not shown) [DOTAP, 1,2-dioleoyl-3-trimethylammonium-propane (chloride salt)]", "values": [
      {"measurement": "toxicity of lipid-only pattern versus control with medium only", "setting": "NIH 3T3 cells [2]; DOTAP-only pattern, NIH 3T3 cells, 48 hours, p>0.05", "result": "did not differ significantly"}
    ]},
    {"compound": "CC(=O)O[C@@]12CO[C@@H]1C[C@H](O)[C@@]1(C)C(=O)[C@H](O)C3=C(C)[C@@H](OC(=O)[C@H](O)[C@@H](NC(=O)OC(C)(C)C)c4ccccc4)C[C@@](O)([C@@H](OC(=O)c4ccccc4)[C@H]21)C3(C)C", "note": "[docetaxel]", "values": [
      {"measurement": "comparable concentration of docetaxel dissolved in DMSO delivered from solution", "setting": "NIH 3T3 cells [2]; equivalent solution concentration for the toxicity of the docetaxel pattern, 48 hours", "result": "approximately 6.25 mg/mL"},
      {"measurement": "cell death over drug pattern", "setting": "NIH 3T3 cells [2]; [3]", "result": "over 60%"}
    ]},
    {"compound": "CC(C)[C@@H]1NC(=O)[C@H](C)OC(=O)[C@@H](C(C)C)NC(=O)[C@@H](C(C)C)OC(=O)[C@H](C(C)C)NC(=O)[C@H](C)OC(=O)[C@@H](C(C)C)NC(=O)[C@@H](C(C)C)OC(=O)[C@H](C(C)C)NC(=O)[C@H](C)OC(=O)[C@@H](C(C)C)NC(=O)[C@@H](C(C)C)OC1=O", "note": "[valinomycin]", "values": [
      {"measurement": "toxicity level from the surface (cells killed)", "setting": "NIH 3T3 cells [2]; DOTAP/valinomycin pattern (4:1 lipid-to-drug), NIH 3T3 cells, 24 hours, live/dead assay", "result": "about 11%"},
      {"measurement": "corresponding concentration of liposomal drug delivered from solution", "setting": "NIH 3T3 cells [2]; equivalent solution concentration for the toxicity of the DOTAP/valinomycin pattern, 24 hours", "result": "about 0.1 mg/mL"},
      {"measurement": "cell death over drug pattern", "setting": "NIH 3T3 cells [2]; [3]", "result": "about 25%"}
    ]}
  ]
}
